From patent publication US11415579B2, “Assay for measuring a rate of reaction between a target and a ligand candidate” (Imperial College Innovations Ltd., priority 2016, dated 2022)

Columns and labels:
Cdk2[C177A, F80C, K278C] = target: T1, Cdk2[C177A, F80C, K278C] (Homo sapiens, UniProt P24941, C177A/F80C/K278C); experiment: Kinetic thiol consumption assay with mutant Cdk2 as model thiol; type: binding; design: unit not given here; conditions: 500 μM ligand, 5 μM thiol, phosphate buffer pH 8
T1 construct: poly-histidine; made in house; host or cells: E. coli
Method in brief: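 First-order rate constants were derived by exponential-decay fitting of DMSO/thiol-normalized fluorescence (380/470 nm) over time at room temperature. Thiol was 5 μM E. coli-expressed His-tagged Cdk2 mutant C177A/F80C/K278C in degassed pH 8 phosphate buffer containing 2% v/v TCEP beads.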

Cdk2(S181C) (C177A) = target: T2, Cdk2(S181C) (C177A) (Homo sapiens, UniProt P24941, C177A/S181C); experiment: Kinetic thiol consumption assay with Cdk2 mutant S181C; type: binding; design: key to Rate enhancement, Cdk2 S181C: rate constant with Cdk2 ÷ rate constant with model thiol (fold); conditions: additional mutation C177A; for Rate constant with Cdk2 S181C: Protein: Cdk2, cysteine position S181C, in h^-1
T2 construct: poly-histidine; made in house; host or cells: E. coli
Method in brief: (§1)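 Read-out is fluorescence at 380/470 nm, taken after 1 h at room temperature and normalized to a DMSO/thiol-only control over time. Thiol (5 μM Cdk2 mutant or model thiol) was in degassed pH 8 phosphate buffer with 2% v/v TCEP beads. Acrylamide rate constants for Cdk2 were divided by those with model thiol.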

[1] = target: T3, human cyclin-dependent kinase 2 (Cdk2) (Homo sapiens, UniProt P24941); experiment: Kinetic thiol consumption assay with wild type Cdk2 (C177); type: binding; design: key to Rate enhancement, Cdk2 WT: k(Cdk2) divided by k(model thiol); Rate constant with Cdk2 (k(Cdk2)): unit not given here; conditions: for Rate constant with Cdk2 (k(Cdk2)): 500 μM ligand, 5 μM thiol, phosphate buffer pH 8; for Rate enhancement, Cdk2 WT: no additional mutations; for Rate constant with Cdk2 WT: Protein: Cdk2, cysteine position WT, in h^-1; for k(Cdk2)/k(Cdk2_mut) rate enhancement: model thiol Cdk2[C177A, F80C, K278C]; for k(Cdk2)/k(GSH) rate enhancement: model thiol glutathione
T3 construct: poly-histidine; made in house; host or cells: E. coli
Method in brief: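 His-tagged human Cdk2 from E. coli (sole surface cysteine C177) or a model thiol, each 5 μM in degassed phosphate buffer pH 8 with immobilized TCEP, reacted with acrylamides at room temperature. Fluorescence (ex 380/em 470) normalized to DMSO/thiol control over time; first-order rate constants, Cdk2 rate divided by model-thiol rate.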

Cdk2(N272C) (C177A) = target: T4, Cdk2(N272C) (C177A) (Homo sapiens, UniProt P24941, C177A/N272C); experiment: Kinetic thiol consumption assay with Cdk2 mutant N272C; type: binding; design: key to Rate enhancement, Cdk2 N272: rate constant with Cdk2 ÷ rate constant with model thiol (fold); conditions: for Rate enhancement, Cdk2 N272: Cdk2 N272, additional mutation C177A; for Rate constant with Cdk2 N272C: Protein: Cdk2, cysteine position N272C, additional mutation C177A, in h^-1
T4 construct: poly-histidine; made in house; host or cells: E. coli
Method in brief: as §1

Cdk2(T182C) (C177A) = target: T5, Cdk2(T182C) (C177A) (Homo sapiens, UniProt P24941, C177A/T182C); experiment: Kinetic thiol consumption assay with Cdk2 mutant T182C; type: binding; design: key to Rate enhancement, Cdk2 T182C: rate constant with Cdk2 ÷ rate constant with model thiol (fold); conditions: additional mutation C177A; for Rate constant with Cdk2 T182C: Protein: Cdk2, cysteine position T182C, in h^-1
T5 construct: poly-histidine; made in house; host or cells: E. coli
Method in brief: as §1

Cdk2(H71C) (C177A) = target: T6, Cdk2(H71C) (C177A) (Homo sapiens, UniProt P24941, C177A/H71C); experiment: Kinetic thiol consumption assay with Cdk2 mutant H71C; type: binding; design: key to Rate enhancement, Cdk2 H71C: rate constant with Cdk2 ÷ rate constant with model thiol (fold); conditions: additional mutation C177A; for Rate constant with Cdk2 H71C: Protein: Cdk2, cysteine position H71C, in h^-1
T6 construct: poly-histidine; made in house; host or cells: E. coli
Method in brief: as §1

Cdk2(S276C) (C177A) = target: T7, Cdk2(S276C) (C177A) (Homo sapiens, UniProt P24941, C177A/S276C); experiment: Kinetic thiol consumption assay with Cdk2 mutant S276C; type: binding; design: key to Rate enhancement, Cdk2 S276C: rate constant with Cdk2 ÷ rate constant with model thiol (fold); conditions: additional mutation C177A; for Rate constant with Cdk2 S276C: Protein: Cdk2, cysteine position S276C, in h^-1
T7 construct: poly-histidine; made in house; host or cells: E. coli
Method in brief: as §1

[2] = Kinetic thiol consumption assay with model thiol glutathione; type: physicochemical; design: Rate constant with glutathione (k(GSH)): unit not given here; conditions: for Rate constant with glutathione (k(GSH)): 500 μM ligand, 5 μM thiol, phosphate buffer pH 8; for Rate constant with Glutathione: Protein: Glutathione, cysteine position NA, in h-1
Method in brief: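 Rate constants for acrylamide reaction with 5 μM glutathione come from first-order exponential fits of normalized fluorescence decay (ex 380, em 470 nm). Reactions run in degassed phosphate buffer at pH 8 containing TCEP beads, room temperature.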

Cdk2(R122C) (C177A) = target: T8, Cdk2(R122C) (C177A) (Homo sapiens, UniProt P24941, C177A/R122C); experiment: Kinetic thiol consumption assay with Cdk2 mutant R122C; type: binding; design: key to Rate enhancement, Cdk2 R122C: rate constant with Cdk2 ÷ rate constant with model thiol (fold); conditions: additional mutation C177A; for Rate constant with Cdk2 R122C: Protein: Cdk2, cysteine position R122C, in h-1
T8 construct: poly-histidine; made in house; host or cells: E. coli
Method in brief: as §1

Cdk2(C177A, F80C) = target: T9, Cdk2(C177A, F80C) (Homo sapiens, UniProt P24941, C177A/F80C); experiment: Kinetic thiol consumption assay with Cdk2 mutant F80C, incl. kobs versus concentration (Kd, k2); type: binding; design: key to Rate enhancement, Cdk2 F80C: Cdk2 rate constant divided by model-thiol rate constant; conditions: additional mutation C177A; for Rate constant with Cdk2 F80C: Protein: Cdk2, cysteine position F80C, in h^-1
T9 construct: poly-histidine; made in house; host or cells: E. coli
Method in brief: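 His-tagged Cdk2(C177A/F80C) from E. coli or model thiol, 5 μM in degassed phosphate buffer pH 8 with TCEP beads, reacted with acrylamide ligands; fluorescence (ex/em 380/470 nm) normalized to DMSO control and fitted to first-order decay for kobs. Kd and k2 obtained from hyperbolic fit of kobs versus ligand concentration.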

SMILES	Rate constant with Cdk2[C177A, F80C, K278C] (k(Cdk2_mut)) (Cdk2[C177A, F80C, K278C])	Rate enhancement, Cdk2 S181C (Cdk2(S181C) (C177A))	Rate constant with Cdk2 S181C (Cdk2(S181C) (C177A))	Rate constant with Cdk2 (k(Cdk2)) [1]	Rate enhancement, Cdk2 WT [1]	Rate constant with Cdk2 WT [1]	k(Cdk2)/k(Cdk2_mut) rate enhancement [1]	k(Cdk2)/k(GSH) rate enhancement [1]	Rate enhancement, Cdk2 N272 (Cdk2(N272C) (C177A))	Rate constant with Cdk2 N272C (Cdk2(N272C) (C177A))	Rate enhancement, Cdk2 T182C (Cdk2(T182C) (C177A))	Rate constant with Cdk2 T182C (Cdk2(T182C) (C177A))	Rate enhancement, Cdk2 H71C (Cdk2(H71C) (C177A))	Rate enhancement, Cdk2 S276C (Cdk2(S276C) (C177A))	Rate constant with Cdk2 S276C (Cdk2(S276C) (C177A))	Rate constant with glutathione (k(GSH)) [2]	Rate constant with Glutathione [2]	Rate enhancement, Cdk2 R122C (Cdk2(R122C) (C177A))	Rate constant with Cdk2 R122C (Cdk2(R122C) (C177A))	Rate enhancement, Cdk2 F80C (Cdk2(C177A, F80C))	further results
C=CC(=O)Nc1ccccc1N1CCOCC1 [CA-030]	0.03859	0.7478	0.01251	0.01069	0.639	0.01069	0.277	0.6723	0.2409	0.00403	0.5957	0.009966	0.1317	0.2657	0.004445	0.0159	0.01673	0.2896	0.004845	1.494	Rate constant with Cdk2 H71C (Cdk2(H71C) (C177A)): 0.002204; Rate constant with Cdk2 F80C (Cdk2(C177A, F80C)): 0.025
C=CC(=O)N(CC(=O)NC1CC1)C1CC1 [CA-031]	0.00466	0.5614	0.009769	0.00688	0.1766	0.003072	1.479	0.4081	1.169	0.02034	1.063	0.01849	0	0.5294	0.009212	0.01687	0.0174	0.221	0.003846	0.02876	Rate constant with Cdk2 F80C (Cdk2(C177A, F80C)): 0.0005005
C=CC(=O)N1CCCc2sccc2C1 [CA-034]	0.00997	0.5858	0.01082	0.02784	1.053	0.01944	2.793	2.056	0.7223	0.01334	10.15	0.1874	1.75	2.718	0.0502	0.01354	0.01847	0.6416	0.01185	1.278	Rate constant with Cdk2 H71C (Cdk2(H71C) (C177A)): 0.03232; Rate constant with Cdk2 F80C (Cdk2(C177A, F80C)): 0.02361
